Data reported in article PMC6072100, “Exploring the links between peptoid antibacterial activity and toxicity” (MedChemComm, 2017).
Where two headings read alike, the source gives them in different places. Square brackets hold non-standard residues; d marks the D form. Ends that are not written are not given here. Peptide text beside a SMILES is read from it. Nspe = C[C@H](NCC(=O)O)c1ccccc1; NhArg = N=C(N)NCCCCNCC(=O)O; Nphe = O=C(O)CNCc1ccccc1; Nlys = NCCCCNCC(=O)O

Experiments:
HaCaT cells = assay: Skin cell toxicity assay with HaCaT (alamarBlue); type: cell-based, human; conditions: human, HaCaT cells (keratinocytes), 24 h
Method: (§1) The activity of our peptoid library was assessed against both bacterial and mammalian cells to gain a broader understanding of the factors that lead to effective and selective antimicrobial peptoids. We screened for broad-spectrum antibacterial activity against Gram-negative (Escherichia coli and Pseudomonas aeruginosa) and Gram-positive (Staphylococcus aureus and S. epidermidis) bacteria. The toxicity of the library was also assessed against two mammalian cell lines; HaCaT spontaneously transformed aneuploid keratinocytes were employed to model toxicity against human skin cells and HepG2, a cell line derived from a human liver carcinoma, were used as a study on polarised human hepatocytes. Detailed methods for these assays can be found in the ESI. ^‡ […]
(§2) Please note – ED50, the median effective dose, was defined as the dose that kills 50% of cells.
(§3) Cytotoxicity analyses were performed in 96-well plates (Costar, Fisher Scientific) using alamarBlue® (Invitrogen) for cell viability detection using a modified protocol as described previously. HepG2 or HaCaT cells were subcultured at 37 °C, 5% CO2 in DMEM high glucose supplemented with heat-inactivated foetal bovine sera (FBS, 10%; Biosera Ltd) and penicillin/streptomycin (P/S, 1%). Cells were counted using a Neubauer Improved Haemocytometer. HepG2 cells were seeded 1 day prior to treatment in 96 well plates at a concentration of 2 × 10^5 cells per mL in 100 μL of medium (2 × 10^4 cells per well). Then cells were pre-incubated with the compounds in triplicate in a dilution series in triplicate from 2–100 μM (5 mM stock solutions in DMSO diluted from 100 μM to 3 μM; untreated cells with DMSO as a negative control) in 50 μl of the media for 1 hour. Afterwards, 40 μL were removed from each well before the addition of 90 μL of the media, followed by incubation for 24 hours at 37 °C, 5% CO2. Then, 10 μL of alamarBlue® (Invitrogen) was added to each well before a 2 hour incubation prior to assessing cell viability using a fluorescent plate reader (Biotek; Ex 560 nm/Em 600 nm). All data were measured in triplicate on a minimum of two occasions to ensure a robust data set was collected. The ED50 values were calculated from the dose response results achieved from the serial dilutions. […]
(§4) Cells were counted using a Neubauer Improved
(§5) Haemocytometer. […]
(§6) µM to 3 µM; untreated cells with DMSO as a negative control) in 50 µl of the media for 1 hour.
(§7) Afterwards, 40 µL were removed from each well before the addition of 90 µL of the media, followed by incubation for 24 hours at 37 °C, 5% CO2. Then, 10 µL of alamarBlue® (Invitrogen) was added to each well before a 2 hour incubation prior to assessing cell viability using a fluorescent plate reader (Biotek; Ex 560 nm / Em 600 nm). All data was measured in triplicate on a minimum of two occasions to ensure a robust data set was collected. The ED50 values were calculated from the dose response results achieved from the serial dilutions.
(§8) Skin Cell Toxicity assay with HaCaT […]
(§9) alamarBlue® (Invitrogen) for cell viability detection. HaCaT cells were subcultured at 37 °C, 5% CO2 in DMEM high glucose supplemented with heat-inactivated foetal bovine sera (FBS, 10%; Biosera Ltd) and penicillin/streptomycin (P/S, 1%). Cells were counted using a Neubauer Improved Haemocytometer. HaCaT cells were seeded in the plates 24 hours prior to treatment in 96 well plates at a concentration of 2x10^5 cells/mL in 100 µL of medium (2x10^4 cells/well).
(§10) Empty wells were filled with 100 µL PBS. After 24 hours, cells were incubated with the compounds in a dilution series in triplicate from 2 – 100 µM (5 mM stock solutions in DMSO diluted from 100 µM to 3 µM; Amphotericin B was used as a positive control and untreated cells with DMSO as a negative control) in 50 µL of the media for 1 hour. Afterwards, 40 µl was removed from each well, 90 µL of medium was added to each well and the cells incubated for 24 hours at 37 °C, 5% CO2. 10 µL of alamarBlue® (Invitrogen) was added to each well before […]

[1] = Skin cell toxicity assay with HaCaT (alamarBlue); type: cell-based, human; conditions: human, HaCaT cells (keratinocytes), ED50 HaCaT
Method: as §1, §2, §3, §4, §5, §6, §7, §8, §9, §10

[2] = tested on: Staphylococcus epidermidis (laboratory strain from clinical isolate); type: cell-based; conditions: lowest concentration completely inhibiting growth, 37 °C, 16 h; range 2–100 μM
Method: (§11) Escherichia coli K-12 wild-type strain (W3110/ATCC27325, F^–, λ^–, rpoS(Am), rph-1, Inv(rrnD-rrnE)), Pseudomonas aeruginosa PA01 (ATCC 15692) Staphylococcus aureus (3R7089 strain Oxford/ATCC9144) and Staphylococcus epidermidis (laboratory strain from clinical isolate) were selected for bacteriological studies as representative Gram-negative (E. coli and P. aeruginosa) and Gram-positive (S. aureus and S. epidermidis) species. Bacterial cultures were prepared by streaking bacterial strains onto LB agar plates with an inoculation loop and incubated overnight at 37 °C. A single colony was selected and placed in 5 mL of Iso-sensitest broth (Oxoid, ThermoScientific) and incubated with shaking for 16–18 h at 37 °C to provide liquid cultures for testing.
(§12) MIC values were obtained according to the protocol described by J. M. Andrews et al.[58] and were conducted in 96-well plates (Sarstedt). Bacteria were grown from overnight cultures in Iso-sensitest broth to an A650nm of 0.07 equivalent to a 0.5 MacFarland standard (240 μM BaCl2 in 0.18 M H2SO4). This culture was diluted ten-fold with Iso-sensitest broth before use. Peptoids were initially dissolved in DMSO (5 mM) and diluted further in Iso-sensitest broth to achieve a concentration range of 4–200 μM using 2-fold serial dilutions. 50 μl of inoculum and 50 μl of peptoid solution were added to each test well (final concentration range of 2–100 μM). Experiments were performed in triplicate. A positive control for bacterial growth contained only the inoculum and Iso-sensitest broth. Other controls contained the inoculum and serial dilutions of ampicillin (from 250 μg mL^–1 to 2 μg mL^–1), serial dilutions of DMSO and the inoculum to confirm no inhibitory effect on bacterial growth, and Iso-sensitest broth alone as a sterile control. […] Quantitative data was attained from absorbance values using a Biotek Synergy H4 plate reader.
(§13) Antibacterial MIC determination
as §11, with “(W3110 / ATCC27325, F-, λ-,” for “(W3110/ATCC27325, F^–, λ^–,”, “Oxford / ATCC9144)” for “Oxford/ATCC9144)”, “°C.” for “°C. A single colony was selected and placed in 5 mL of Iso-sensitest broth (Oxoid, ThermoScientific) and incubated with shaking for 16–18 h at 37 °C to provide liquid cultures for testing.”
(§14) A single colony was selected and placed in 5 mL of Iso-sensitest broth (Oxoid, ThermoScientific) and incubated with shaking for 16-18 h at 37 °C to provide liquid […]
(§15) MIC values were obtained according to the protocol described by J. M. Andrews et al.1 and were conducted in 96-well plates (Sarstedt). Bacteria were grown from overnight cultures in Iso-sensitest broth to an A650nm of 0.07 equivalent to a 0.5 MacFarland standard (240 μM BaCl2 in 0.18 M H2SO4). This culture was diluted ten-fold with Iso-sensitest broth before use. Peptoids were initially dissolved in DMSO (5 mM) and diluted further in Iso-sensitest broth to achieve a concentration range of 4 – 200 µM using 2-fold serial dilutions. 50 μl of inoculum and 50 μl of peptoid solution were added to each test well (final concentration range of 2 – 100 µM). Experiments were performed in triplicate. A positive control for bacterial growth contained only the inoculum and Iso-sensitest broth. Other controls contained the inoculum and serial dilutions of ampicillin (from 250 µg/mL to 2 µg/mL), serial dilutions of DMSO and the inoculum to confirm no inhibitory effect on bacterial growth, and Iso-sensitest broth alone as a sterile control. […]
(§16) growth after incubation at 37 °C for 16 h with shaking. Quantitative data was attained from absorbance values using a Biotek Synergy H4 plate reader.

[3] = tested on: Escherichia coli K-12 wild-type strain (W3110/ATCC27325); type: cell-based; conditions: lowest concentration completely inhibiting growth, 37 °C, 16 h; range 2–100 μM
Method: as §11, §12, §13
as §11, with “(W3110 / ATCC27325, F-, λ-,” for “(W3110/ATCC27325, F^–, λ^–,”, “Oxford / ATCC9144)” for “Oxford/ATCC9144)”, “°C.” for “°C. A single colony was selected and placed in 5 mL of Iso-sensitest broth (Oxoid, ThermoScientific) and incubated with shaking for 16–18 h at 37 °C to provide liquid cultures for testing.”
as §14, §15, §16

[4] = tested on: Pseudomonas aeruginosa PA01 (ATCC 15692); type: cell-based; conditions: lowest concentration completely inhibiting growth, 37 °C, 16 h; range 2–100 μM
Method: as §11, §12, §13
as §11, with “(W3110 / ATCC27325, F-, λ-,” for “(W3110/ATCC27325, F^–, λ^–,”, “Oxford / ATCC9144)” for “Oxford/ATCC9144)”, “°C.” for “°C. A single colony was selected and placed in 5 mL of Iso-sensitest broth (Oxoid, ThermoScientific) and incubated with shaking for 16–18 h at 37 °C to provide liquid cultures for testing.”
as §14, §15, §16

[5] = tested on: Staphylococcus aureus (3R7089 strain Oxford/ATCC9144); type: cell-based; conditions: lowest concentration completely inhibiting growth, 37 °C, 16 h; range 2–100 μM
Method: as §11, §12, §13
as §11, with “(W3110 / ATCC27325, F-, λ-,” for “(W3110/ATCC27325, F^–, λ^–,”, “Oxford / ATCC9144)” for “Oxford/ATCC9144)”, “°C.” for “°C. A single colony was selected and placed in 5 mL of Iso-sensitest broth (Oxoid, ThermoScientific) and incubated with shaking for 16–18 h at 37 °C to provide liquid cultures for testing.”
as §14, §15, §16

E. coli [6] = tested on: E. coli; design: method as in PMID 10681325, PMID 3299384; conditions: cited from earlier work
S. aureus = tested on: S. aureus; design: method as in PMID 10681325, PMID 3299384; conditions: cited from earlier work
S. epidermidis = tested on: S. epidermidis; design: method as in PMID 10681325, PMID 3299384; conditions: cited from earlier work
E. coli [7] = tested on: E. coli; design: method as in PMID 10681325; conditions: cited from earlier work

## N=C(N)NCCCCNCC(=O)N(CC(=O)N(CC(=O)N(CCCCNC(=N)N)CC(=O)N(CC(=O)N(CC(=O)N(CCCCNC(=N)N)CC(=O)N(CC(=O)N(CC(=O)N(CCCCNC(=N)N)CC(=O)N(CC(=O)N(CC(N)=O)Cc1ccccc1)Cc1ccccc1)Cc1ccccc1)Cc1ccccc1)Cc1ccccc1)Cc1ccccc1)Cc1ccccc1)Cc1ccccc1 [Peptoid 33, (NhArgNpheNphe)4] (H-[NhArg][Nphe][Nphe][NhArg][Nphe][Nphe][NhArg][Nphe][Nphe][NhArg][Nphe][Nphe]-NH2)
HaCaT cells
  ED50 HaCaT: >100 µM
[1]
  CC50 at 24 h: 100 µM
[2]
  MIC S. epidermidis: 2 µM
[3]
  MIC E. coli: 6 µM
[4]
  MIC P. aeruginosa: 25 µM

## C[C@@H](c1ccccc1)N(CC(N)=O)C(=O)CN(C(=O)CN(CCCCNC(=N)N)C(=O)CN(C(=O)CN(C(=O)CN(CCCCNC(=N)N)C(=O)CN(C(=O)CN(C(=O)CN(CCCCN)C(=O)CN(C(=O)CN(C(=O)CNCCCCN)[C@@H](C)c1ccccc1)[C@@H](C)c1ccccc1)[C@@H](C)c1ccccc1)[C@@H](C)c1ccccc1)[C@@H](C)c1ccccc1)[C@@H](C)c1ccccc1)[C@@H](C)c1ccccc1 [Peptoid 41, (NLysNspeNspe)2(NhArgNspeNspe)2] (H-[Nlys][Nspe][Nspe][Nlys][Nspe][Nspe][NhArg][Nspe][Nspe][NhArg][Nspe][Nspe]-NH2)
HaCaT cells
  ED50 HaCaT: >100 µM
[1]
  CC50 at 24 h: 100 µM
[3]
  MIC E. coli: 17 µM
[5]
  MIC S. aureus: 17 µM
[4]
  MIC P. aeruginosa: 34 µM

## Magainin 2
E. coli [6]
  MIC E. coli: 5 μg mL^–1
E. coli [6]; value in brackets, in μM
  MIC E. coli: 2 µM
S. aureus
  MIC S. aureus: 50 μg mL^–1
S. aureus; value in brackets, in μM
  MIC S. aureus: 20 µM
S. epidermidis
  MIC S. epidermidis: 10 μg mL^–1
S. epidermidis; value in brackets, in μM
  MIC S. epidermidis: 4 µM

## cecropin A (KWKLFKKIEKVGQNIRDGIIKAGPAVAVVGQATQIAK; ends and bridges not checked; UniProt P01507 27-63, looked up) [natural antimicrobial peptide (AMP) described in the literature]
E. coli [7]
  concentration shown to kill 90% of E. coli: 2 µM
